Test results as given in patent publication US8357634B2, “N-alkoxycarboxamides and their use as microbiocides” (Syngenta Crop Protection LLC, priority 2009, dated 2013).
Values belong to the compound of their own block, whether it stands above or below them.

What was measured:
Botrvtis cinerea = test: Example B-1: Action against Botrytis cinerea, fungal growth assay; type: cell-based; conditions: 0.002% active ingredient, PDB broth, 24° C., photometric after 3-4 days
Procedure: (§1) Action against Botrvtis cinerea—fungal growth assay Conidia of the fungus from cryogenic storage was directly mixed into nutrient broth (PDB potato dextrose broth). After placing a (DMSO) solution of the test compounds (0.002% active ingredient) into a microtiter plate (96-well format) the nutrient broth containing the fungal spores was added. The test plates were incubated at 24° C. and the inhibition of growth was measured photometrically after 3-4 days. The activity of a compound was expressed as fungal growth inhibition (0=no growth inhibition, ratings of 80% to 99% mean good to very good inhibition, 100%=complete inhibition).

[1] = system: Mycosphaerella arachidis (Cercospora arachidicola); test: Example B-2: Action against Mycosphaerella arachidis, fungal growth assay; type: cell-based; conditions: 0.002% active ingredient, PDB broth, 24° C., photometric after 6-7 days
Procedure: as §1, with “Action Against Mycosphaerella arachidis (Early Leaf Spot of Groundnut; Cercospora arachidicola [fanamorph])—Fungal Growth Assay” for “Action against Botrvtis cinerea—fungal growth assay”, “storage were” for “storage was”, “after 6-7” for “after 3-4”

Septoria tritici = test: Example B-3: Action against Septoria tritici, fungal growth assay; type: cell-based; conditions: Zymoseptoria tritici; 0.002% active ingredient; PDB broth, 24° C., photometric after 72 hrs
Procedure: as §1, with “Action Against Septoria tritici—Fungal Growth Assay” for “Action against Botrvtis cinerea—fungal growth assay”, “storage were” for “storage was”, “was determined” for “was measured”, “after 72 hrs.” for “after 3-4 days.”

[2] = system: Erysiphe graminis f. sp. tritici; test: Example B-5: Action against Erysiphe graminis f. sp. tritici (wheat powdery mildew), wheat leaf segments; type: in vivo; conditions: Blumeria graminis, foliar, 168 h, 0.02% active ingredient, 7 days after inoculation, read-out: preventive fungicidal activity (inhibition)
Procedure: (§2) Action Against Erysiphe graminis f. sp. tritici (Wheat Powdery Mildew) Wheat leaf segments were placed on agar in multiwell plates (24-well format) and sprayed with test solutions (0.02% active ingredient). After drying, the leaf disks were inoculated with a spore suspension of the fungus. After appropriate incubation the activity of a compound was assessed 7 days after inoculation as preventive fungicidal activity.

Puccinia recondita [3] = test: Example B-6: Protective action against Puccinia recondita (brown rust) on wheat leaf segments; type: in vivo; conditions: foliar, 192 h, 0.02% active ingredient, 8 days after inoculation, read-out: preventive fungicidal activity (inhibition)
Procedure: as §2, with “Protective Action” for “Action”, “Puccinia recondita (Brown Rust) on Wheat” for “Erysiphe graminis f. sp. tritici (Wheat Powdery Mildew)”, “8” for “7”

Pyrenophora teres [4] = test: Example B-8: Action against Pyrenophora teres (net blotch) on barley leaf segments; type: in vivo; conditions: foliar, 96 h, 0.02% active ingredient, 4 days after inoculation, read-out: preventive fungicidal activity (inhibition)
Procedure: as §2, with “Pyrenophora teres (Net Blotch) on Barley Barley” for “Erysiphe graminis f. sp. tritici (Wheat Powdery Mildew) Wheat”, “4” for “7”

[5] = system: Blumeria graminis f. sp. tritici (Erysiphe graminis f. sp. tritici); test: Example B-9: Blumeria graminis f. sp. tritici / wheat / leaf disc preventive (comparative); type: in vivo; conditions: 4 dpi
Procedure: Blumeria graminis f. sp. tritici (Erysiphe graminis f. sp. tritici)/Wheat/Leaf Disc Preventive (Powdery mildew on wheat) Wheat leaf segments were placed on agar in a multiwell plate (24-well format) and sprayed with test solutions. After drying, the leaf disks were inoculated with a spore suspension of the fungus. After appropriate incubation the activity of a compound was assessed 4 dpi (days after inoculation) as preventive fungicidal activity.

Puccinia recondita [6] = test: Example B-10: Puccinia recondita / wheat / leaf disc preventative (comparative); type: in vivo; conditions: 8 dpi
Procedure: Puccinia recondita/Wheat/Leaf Disc Preventative (Brown Rust) Wheat leaf segments were placed on agar in multiwell plates (24-well format) and sprayed with test solutions. After drying, the leaf disks were inoculated with a spore suspension of the fungus. After appropriate incubation the activity of a compound was assessed 8 dpi (days after inoculation) as preventive fungicidal activity.

[7] = system: Phaeosphaeria nodorum (Septoria nodorum); test: Example B-11: Phaeosphaeria nodorum / wheat / leaf disc preventative (comparative); type: in vivo; conditions: 4 dpi
Procedure: (§3) Phaeosphaeria nodorum (Septoria nodorum)/Wheat/Leaf Disc Preventative (Glume Blotch) Wheat leaf segments were placed on agar in a multiwell plate (24-well format) and sprayed with test solutions. After drying, the leaf disks were inoculated with a spore suspension of the fungus. After appropriate incubation the activity of a compound was assessed 4 dpi (days after inoculation) as preventive fungicidal activity.

Pyrenophora teres [8] = test: Example B-12: Pyrenophora teres / barley / leaf disc preventive (comparative); type: in vivo; conditions: 4 dpi
Procedure: as §3, with “Pyrenophora teres/Barley/Leaf” for “Phaeosphaeria nodorum (Septoria nodorum)/Wheat/Leaf”, “Preventive (Net” for “Preventative (Glume”, “Barley” for “Wheat”

Alternaria solani = test: Example B-13: Alternaria solani / tomato / leaf disc (comparative); type: in vivo; conditions: 4 dpi
Procedure: Alternaria solani/Tomato/Leaf Disc (Early Blight) Tomato leaf disks were placed on water agar in multiwell plates (24-well format) and sprayed with test solutions. After drying, the leaf disks were inoculated with a spore suspension of the fungus. After appropriate incubation the activity of a compound was assessed 4 dpi (days after inoculation) as preventive fungicidal activity.

[9] = system: Botryotinia fuckeliana (Botrytis cinerea); test: Example B-14: Botryotinia fuckeliana (Botrytis cinerea) / liquid culture (comparative); type: cell-based; conditions: 24° C., photometric after 3-4 days, read-out: inhibition of growth
Procedure: (§4) Botryotinia fuckeliana (Botrytis cinerea)/Liquid Culture (Gray Mould) Conidia of the fungus from cryogenic storage were directly mixed into nutrient broth. After placing a (DMSO) solution of the test compounds into a microtiter plate (96-well format) the nutrient broth containing the fungal spores was added. The test plates were incubated at 24° C. and the inhibition of growth is determined photometrically after 3-4 days.

[10] = system: Mycosphaerella arachidis (Cercospora arachidicola); test: Example B-15: Mycosphaerella arachidis / liquid culture (comparative); type: cell-based; conditions: 24° C., photometric after 6-7 days, read-out: inhibition of growth
Procedure: as §4, with “Mycosphaerella arachidis (Cercospora arachidicola)/Liquid” for “Botryotinia fuckeliana (Botrytis cinerea)/Liquid”, “(Early Leaf Spot)” for “(Gray Mould)”, “broth (PDB potato dextrose broth).” for “broth.”, “measured” for “determined”, “6-7” for “3-4”

[11] = system: Mycosphaerella praminicola (Seotoria tritici); test: Example B-16: Mycosphaerella graminicola (Septoria tritici) / liquid culture (comparative); type: cell-based; conditions: 96 h, 24° C., photometric after 4 days, read-out: inhibition of growth
Procedure: as §4, with “Mycosphaerella praminicola (Seotoria tritici)/Liquid” for “Botryotinia fuckeliana (Botrytis cinerea)/Liquid”, “(Septoria Blotch)” for “(Gray Mould)”, “broth (PDB potato dextrose broth).” for “broth.”, “measured” for “determined”, “4” for “3-4”

Gaeumannomyces graminis = test: Example B-17: Gaeumannomyces graminis / liquid culture (comparative); type: cell-based; conditions: 24 C, photometric after 2-3 days, read-out: inhibition of growth
Procedure: Gaeumannomyces graminis/Liquid Culture (Take-All of Cereals) Mycelial fragments of the fungus from cryogenic storage were directly mixed into nutrient broth (PDB potato dextrose broth). After placing a (DMSO) solution of the test compounds into a microtiter plate (96-well format) the nutrient broth containing the fungal spores was added. The test plates were incubated at 24 C and the inhibition of growth was determined photometrically after 2-3 days.

[12] = system: Monopraphella nivalis (Microdochium nivale); test: Example B-18: Monographella nivalis (Microdochium nivale) / liquid culture (comparative); type: cell-based; conditions: 24° C., photometric after 4-6 days, read-out: inhibition of growth
Procedure: as §4, with “Monopraphella nivalis (Microdochium nivale)/Liquid” for “Botryotinia fuckeliana (Botrytis cinerea)/Liquid”, “(Foot Rot Cereals” for “(Gray Mould)”, “broth (PDB potato dextrose broth).” for “broth.”, “measured” for “determined”, “4-6” for “3-4”

SMILES: CON(C(=O)c1cn(C)nc1C(F)F)C(C)c1cccc(Oc2ccc(Cl)cc2)c1 (stereo not shown) [Compound 1.021, 3-difluoromethyl-1-methyl-1H-pyrazole-4-carboxylic acid {1-[3-(4-chloro-phenoxy)-phenyl]-ethyl}-methoxy-amide]
inhibition at 0.002 % strength (Botrvtis cinerea): ≥ 80%
inhibition at 0.002 % strength [1]: ≥ 80%
inhibition at 0.002 % strength (Septoria tritici): ≥ 80%
inhibition at 0.02 % strength [2]: ≥ 80%
inhibition at 0.02 % strength (Puccinia recondita [3]): ≥ 80%
inhibition at 0.02 % strength (Pyrenophora teres [4]): ≥ 80%

SMILES: CON(C(=O)c1cn(C)nc1C(F)F)C(C)c1cccc(-c2ccc(Cl)cc2)c1 (stereo not shown) [Compound 1.019, 3-difluoromethyl-1-methyl-1H-pyrazole-4-carboxylic acid [1-(4′ chloro-biphenyl-3-yl)-ethyl]-methoxy-amide]
inhibition at 0.002 % strength (Botrvtis cinerea): ≥ 80%
inhibition at 0.002 % strength [1]: ≥ 80%
inhibition at 0.002 % strength (Septoria tritici): ≥ 80%
inhibition at 0.02 % strength [2]: ≥ 80%
inhibition at 0.02 % strength (Puccinia recondita [3]): ≥ 80%
inhibition at 0.02 % strength (Pyrenophora teres [4]): ≥ 80%

SMILES: CON(Cc1cccc(-c2ccc(Cl)cc2)c1)C(=O)c1cn(C)nc1C(F)F [Compound 1.098, 3-difluoromethyl-1-methyl-1H-pyrazole-4-carboxylic acid (4′-chloro-biphenyl-3-ylmethyl)-methoxy-amide]
inhibition at 0.002 % strength (Botrvtis cinerea): ≥ 80%
inhibition at 0.002 % strength [1]: ≥ 80%
inhibition at 0.002 % strength (Septoria tritici): ≥ 80%
inhibition at 0.02 % strength [2]: ≥ 80%
inhibition at 0.02 % strength (Puccinia recondita [3]): ≥ 80%
inhibition at 0.02 % strength (Pyrenophora teres [4]): ≥ 80%

SMILES: CON(C(=O)c1cn(C)nc1C(F)F)C(C)c1ccc(Oc2ccc(Cl)cc2)cc1 (stereo not shown) [Compound 1.010, 3-difluoromethyl-1-methyl-1H-pyrazole-4-carboxylic acid {1-[4-(4-chloro-phenoxy)-phenyl]-ethyl}-methoxy-amide]
inhibition at 0.002 % strength (Botrvtis cinerea): ≥ 80%
inhibition at 0.002 % strength [1]: ≥ 80%
inhibition at 0.002 % strength (Septoria tritici): ≥ 80%
inhibition at 0.02 % strength [2]: ≥ 80%
inhibition at 0.02 % strength (Puccinia recondita [3]): ≥ 80%
inhibition at 0.02 % strength (Pyrenophora teres [4]): ≥ 80%

SMILES: CC(NC(=O)c1cn(C)nc1C(F)F)c1ccc(Cl)cc1Cl (stereo not shown) [No. 1.042 (prior art), reference compound]
preventive fungicidal activity ([5]; 20 ppm): 0
preventive fungicidal activity ([5]; 60 ppm): 50
preventive fungicidal activity ([5]; 200 ppm): 100
preventive fungicidal activity (Puccinia recondita [6]; 20 ppm): 0
preventive fungicidal activity (Puccinia recondita [6]; 60 ppm): 0
preventive fungicidal activity (Puccinia recondita [6]; 200 ppm): 50
preventive fungicidal activity ([7]; 20 ppm): 0
preventive fungicidal activity ([7]; 60 ppm): 0
preventive fungicidal activity ([7]; 200 ppm): 70
preventive fungicidal activity (Pyrenophora teres [8]; 20 ppm): 50
preventive fungicidal activity (Pyrenophora teres [8]; 60 ppm): 90
preventive fungicidal activity (Pyrenophora teres [8]; 200 ppm): 100
preventive fungicidal activity (Alternaria solani; 20 ppm): 0
preventive fungicidal activity (Alternaria solani; 60 ppm): 20
preventive fungicidal activity (Alternaria solani; 200 ppm): 70
inhibition at 20 ppm ([9]; 20 ppm): 0%
inhibition at 60 ppm ([9]; 60 ppm): 20%
inhibition at 200 ppm ([9]; 200 ppm): 50%
inhibition at 6 ppm ([10]; 6 ppm): 0%
inhibition at 20 ppm ([10]; 20 ppm): 100%
inhibition at 60 ppm ([10]; 60 ppm): 100%
inhibition at 6 ppm ([11]; 6 ppm): 20%
inhibition at 20 ppm ([11]; 20 ppm): 100%
inhibition at 60 ppm ([11]; 60 ppm): 100%
inhibition at 6 ppm (Gaeumannomyces graminis; 6 ppm): 0%
inhibition at 20 ppm (Gaeumannomyces graminis; 20 ppm): 0%
inhibition at 60 ppm (Gaeumannomyces graminis; 60 ppm): 0%
inhibition at 6 ppm ([12]; 6 ppm): 0%
inhibition at 20 ppm ([12]; 20 ppm): 0%
inhibition at 60 ppm ([12]; 60 ppm): 50%

melting point: 114 to 116 °C
SMILES: CON(Cc1cccc(I)c1)C(=O)c1cn(C)nc1C(F)F [Compound 1.097, 3-difluoromethyl-1,1-dimethyl-1H-pyrazole-4-carboxylic acid (3-iodo-benzyl)-methoxy-amide]
inhibition at 0.002 % strength (Botrvtis cinerea): ≥ 80%
inhibition at 0.002 % strength [1]: ≥ 80%
inhibition at 0.002 % strength (Septoria tritici): ≥ 80%
